Experimental data: EP4471048A1, “PEPTIDE INHIBITORS OF INTERLEUKIN-23 RECEPTOR” (Zealand Pharma A/S, priority 2023, dated 2024)
*1 amine or outer side, *2 acyl side, *3 side chain or, on linkers, in order; H or OH if unused. Where a SMILES comes first, the peptide text is derived from it. Bridges are numbered along the chain shown (N, C = ends). [ ]: non-standard residue; d: D form. hAad = O=C([C@H](CCCCC(=O)[*:3])N[*:1])[*:2]; X17 = O=C(C[C@@H](CCCN[*:3])N[*:2])[*:1]; 2Nal = N[C@@H](Cc1ccc2ccccc2c1)C(=O)O; AEF = NCCOc1ccc(C[C@H](N)C(=O)O)cc1; 3Pal = N[C@@H](Cc1cccnc1)C(=O)O; Aad = N[C@@H](CCCC(=O)O)C(=O)O; αMeL = CC(C)C[C@](C)(N)C(=O)O; dOrn = NCCC[C@@H](N)C(=O)O; dDab = NCC[C@@H](N)C(=O)O; Dab = NCC[C@H](N)C(=O)O

Molecular target: T1, human IL-23R (Homo sapiens, UniProt Q5VWK5)
T1 sequence (Q5VWK5 22-629): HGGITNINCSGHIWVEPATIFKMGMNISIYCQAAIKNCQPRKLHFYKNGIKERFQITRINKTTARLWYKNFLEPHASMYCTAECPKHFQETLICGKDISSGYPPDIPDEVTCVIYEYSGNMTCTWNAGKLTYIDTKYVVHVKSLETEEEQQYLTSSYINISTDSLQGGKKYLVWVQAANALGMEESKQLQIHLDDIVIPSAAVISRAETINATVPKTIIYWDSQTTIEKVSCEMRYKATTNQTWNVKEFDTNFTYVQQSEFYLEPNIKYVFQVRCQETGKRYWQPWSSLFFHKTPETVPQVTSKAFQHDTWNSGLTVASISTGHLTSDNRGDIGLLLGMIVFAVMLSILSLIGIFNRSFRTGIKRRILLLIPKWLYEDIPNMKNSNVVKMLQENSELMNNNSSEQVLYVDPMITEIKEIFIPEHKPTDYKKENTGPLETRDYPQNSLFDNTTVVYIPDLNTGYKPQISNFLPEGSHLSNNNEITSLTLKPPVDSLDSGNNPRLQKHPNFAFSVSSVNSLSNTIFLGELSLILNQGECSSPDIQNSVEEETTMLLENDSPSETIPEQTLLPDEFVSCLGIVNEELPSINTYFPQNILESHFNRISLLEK
Test: biochemical
Conditions: for Emax: read-out: % displacement (hIL-23R NIuc)
From the text: The compound binding affinity for IL-23R was estimated by the ability of compounds to displace a fluorophore-labelled reference compound from the human IL-23R. The assay principle relies on Bioluminescence Resonance Energy Transfer (BRET) between a fluorophore-labelled reference compound binding to the IL-23R part of a fusion protein consisting of the IL-23R fused to a Nanoluc luciferase enzyme (Nanoluc). The Nanoluc is placed in the N-terminus in close proximity to the binding domain of the ligand. Upon close proximity between the fluorophore of the fluorophore-labelled compound and the Nanoluc of the fusion protein, bioluminescence energy generated from conversion of a Nanoluc substrate, is transferred to the fluorophore resulting in an increase in BRET. In presence of an unlabelled compound, the unlabelled compound displaces the fluorophore-labelled peptide from its binding site resulting in a decrease in BRET. The concentration for which half of the fluorophore-labelled peptide is displaced by the unlabelled compound depends on the affinity of the compound for the IL-23R, and is termed the IC50 concentration.
The plasmid also contained a gene to confer resistance for the antibiotic hygromycin. A cell line stably expressing the Nluc-IL23R fusion protein was generated by transfection of HEK293 cells with the expression plasmid and selected with hygromycin for 3 weeks in Growth medium consisting of DMEM w/ Glutamax-I containing, 10% V/V FBS, 1% V/V P/S, 1 mM Sodium Pyruvate, and 1X NEAA, and 0.3 mg/mL hygromycin. The remaining cells were propagated and considered a stable expressing Nluc-IL23R fusion protein pool clone.
Cells expressing the Nluc-IL23R fusion protein were expanded in Growth medium and membranes prepared by homogenization of a cell pellet from 18 T175 flasks (4 °C in subsequent steps). The cell pellet was lysed Tris 10 mM, 7.5, 1 mM EDTA and protease inhibitors (Complete, Roche) and homogenized using a 15 mL glass-dounce by 50 strokes. The homogenate was spun at spin @1500 rpm for 10 min, the supernatant transferred to SV-34 tubes and spun at 40000g for 20 min at 4 °C to pellet the crude membranes. The supernatant was then removed, the pellet resuspended in 5 mL buffer containing 50 mM HEPES pH 7.4, 5 mM EGTA, and 5 mM MgCl2, and homogenized. Aliquots of the resuspended and homogenized membranes containing the Nluc-IL23R fusion protein were stored at -80 °C until use.
The plate was sealed with light impermeable plate seals, and incubated on an orbital shaker 400 rpm for 2 hours at room temperature. To determine the BRET ratio, the plate seal was removed and 25 µL of the Nanoluc substrate (Promega N1572) diluted 1:500 was added to each well and incubated for 1-2 minutes on an orbital shaker at 400 rpm. […] The BRET ratio was calculated as the fluorescence from the TAMRA/nanoluc bioluminescence.
Compound potency (IC50) and maximal displacement (% displacement) were estimated by computer-aided curve fitting using a 4-parameter logistic (4PL) non-linear model. […]
In this application, the inventors provide the data as IC50 values.

| SMILES | IC50 | Emax | % displacement (hIL-23R NIuc) |
| --- | --- | --- | --- |
| CC(C)C[C@]1(C)NC(=O)[C@H](Cc2ccc3ccccc3c2)NC(=O)[C@H](Cc2ccc(OCCN)cc2)NC(=O)[C@@H]2CCC(=O)N[C@@H](CCCCCNC(=O)CC[C@@H](C(=O)N[C@@H](CCN)C(=O)N[C@@H](Cc3cccnc3)C(N)=O)NC1=O)C(=O)N[C@@H]([C@@H](C)O)C(=O)N[C@@H](C(C)C)C(=O)N[C@@H](Cc1c[nH]c3ccccc13)C(=O)N[C@@H](CCC(N)=O)C(=O)N2 [Compound 4, [hLys](1c)(6c)^†TVWQE(6c)[Y(2-aminoethoxy)][2-Nal][2-Me-Leu]E(1c)[Dab][3-(3-Pyridyl)-Ala]-[NH2]] | 0.029 nM | 102% | – |
| CC(C)C[C@]1(C)NC(=O)[C@H](Cc2ccc3ccccc3c2)NC(=O)[C@H](Cc2ccc(OCCN)cc2)NC(=O)[C@@H]2CCC(=O)N[C@H](CCCCCNC(=O)CC[C@@H](C(=O)N[C@@H](CCN)C(=O)N[C@@H](Cc3cccnc3)C(N)=O)NC1=O)C(=O)N[C@@H]([C@@H](C)O)C(=O)N[C@@H](C(C)C)C(=O)N[C@@H](Cc1c[nH]c3ccccc13)C(=O)N[C@@H](CCC(N)=O)C(=O)N2 [Compound 5, [{d}hLys](1c)(6c)^†TVWQE(6c)[Y(2-aminoethoxy)][2-Nal][2-Me-Leu]E(1c)[Dab][3-(3-Pyridyl)-Ala]-[NH2]] | 0.037 nM | 98% | – |
| CC(C)C[C@]1(C)NC(=O)[C@H](Cc2ccc3ccccc3c2)NC(=O)[C@H](Cc2ccc(OCCN)cc2)NC(=O)[C@@H]2CC(=O)N[C@H](CCCNC(=O)CCC[C@@H](C(=O)N[C@@H](CCN)C(=O)N[C@@H](Cc3cccnc3)C(N)=O)NC1=O)C(=O)N[C@@H]([C@@H](C)O)C(=O)N[C@@H](C(C)C)C(=O)N[C@@H](Cc1c[nH]c3ccccc13)C(=O)N[C@@H](CCC(N)=O)C(=O)N2 [Compound 8, [{d}Orn](1c)(6c)^†TVWQD(6c)[Y(2-aminoethoxy)][2-Nal][2-Me-Leu][hGlu](1c)[Dab][3-(3-Pyridyl)-Ala]-[NH2]] ([dOrn]TVWQD[AEF][2Nal][αMeL][Aad][Dab][3Pal]-NH2; lactam 1-10, N-6) | 0.52 nM | – | – |
| CC(C)C[C@]1(C)NC(=O)[C@H](Cc2ccc3ccccc3c2)NC(=O)[C@H](Cc2ccc(OCCN)cc2)NC(=O)[C@@H]2CC(=O)N[C@H](CCNC(=O)CCCC[C@@H](C(=O)N[C@@H](CCN)C(=O)N[C@@H](Cc3cccnc3)C(N)=O)NC1=O)C(=O)N[C@@H]([C@@H](C)O)C(=O)N[C@@H](C(C)C)C(=O)N[C@@H](Cc1c[nH]c3ccccc13)C(=O)N[C@@H](CCC(N)=O)C(=O)N2 [Compound 9, [{d}Dab](1c)(6c)^†TVWQD(6c)[Y(2-aminoethoxy)][2-Nal][2-Me-Leu][2-Amino-6-carboxyhexanoyl](1 c)[Dab][3-(3-Pyridyl)-Ala]-[NH2]] ([dDab]TVWQD[AEF][2Nal][αMeL][hAad][Dab][3Pal]-NH2; lactam 1-10, N-6) | 0.52 nM | – | 103% |
| CC(C)C[C@]1(C)NC(=O)[C@H](Cc2ccc3ccccc3c2)NC(=O)[C@H](Cc2ccc(OCCN)cc2)NC(=O)[C@@H]2CC(=O)N[C@H](CCCNC(=O)CC[C@@H](C(=O)N[C@@H](CCN)C(=O)N[C@@H](Cc3cccnc3)C(N)=O)NC1=O)C(=O)N[C@@H]([C@@H](C)O)C(=O)N[C@@H](C(C)C)C(=O)N[C@@H](Cc1c[nH]c3ccccc13)C(=O)N[C@@H](CCC(N)=O)C(=O)N2 [Compound 10, [{d}Orn](1c)(6c)^†TVWQD(6c)[Y(2-aminoethoxy)][2-Nal][2-Me-Leu]E(1c)[Dab][3-(3-Pyridyl)-Ala]-[NH2]] ([dOrn]TVWQD[AEF][2Nal][αMeL]E[Dab][3Pal]-NH2; lactam 1-10, N-6) | 0.67 nM | 107% | – |
| CC(C)C[C@]1(C)NC(=O)[C@H](Cc2ccc3ccccc3c2)NC(=O)[C@H](Cc2ccc(OCCN)cc2)NC(=O)[C@@H]2CC(=O)N[C@H](CCNC(=O)CC[C@@H](C(=O)N[C@@H](CCN)C(=O)N[C@@H](Cc3cccnc3)C(N)=O)NC1=O)C(=O)N[C@@H]([C@@H](C)O)C(=O)N[C@@H](C(C)C)C(=O)N[C@@H](Cc1c[nH]c3ccccc13)C(=O)N[C@@H](CCC(N)=O)C(=O)N2 [Compound 11, [{d}Dab](1c)(6c)^†TVWQD(6c)[Y(2-aminoethoxy)][2-Nal][2-Me-Leu]E(1c)[Dab][3-(3-Pyridyl)-Ala]-[NH2]] ([dDab]TVWQD[AEF][2Nal][αMeL]E[Dab][3Pal]-NH2; lactam 1-10, N-6) | 0.37 nM | 104% | – |
| CC(C)C[C@]1(C)NC(=O)[C@H](Cc2ccc3ccccc3c2)NC(=O)[C@H](Cc2ccc(OCCN)cc2)NC(=O)[C@@H]2CC(=O)N[C@H](CCCNC(=O)CC[C@@H](C(=O)N[C@@H](CCN)C(=O)N[C@@H](Cc3cccnc3)C(N)=O)NC1=O)CC(=O)N[C@@H]([C@@H](C)O)C(=O)N[C@@H](Cc1c[nH]c3ccccc13)C(=O)N[C@@H](CCC(N)=O)C(=O)N2 [Compound 13, [{d}bLys](1c)(6c)^†TWQD(6c)[Y(2-aminoethoxy)][2-Nal][2-Me-Leu]E(1c)[Dab][3-(3-Pyridyl)-Ala]-[NH2]] (TWQD[AEF][2Nal][αMeL]E[Dab][3Pal]-NH2; linker N-4-8 via X17) | 1.4 nM | – | 101% |
| CC(C)C[C@]1(C)NC(=O)[C@H](Cc2ccc3ccccc3c2)NC(=O)[C@H](Cc2ccc(OCCN)cc2)NC(=O)[C@@H]2CCC(=O)N[C@H](CCCNC(=O)CC[C@@H](C(=O)N[C@@H](CCN)C(=O)N[C@@H](Cc3cccnc3)C(N)=O)NC1=O)CC(=O)N[C@@H]([C@@H](C)O)C(=O)N[C@@H](Cc1c[nH]c3ccccc13)C(=O)N[C@@H](CCC(N)=O)C(=O)N2 [Compound 14, [{d}bLys](1c)(6c)^†TWQE(6c)[Y(2-aminoethoxy)][2-Nal][2-Me-Leu]E(1c)[Dab][3-(3-Pyridyl)-Ala]-[NH2]] (TWQE[AEF][2Nal][αMeL]E[Dab][3Pal]-NH2; linker N-4-8 via X17) | 0.44 nM | 101% | – |
| CC(C)C[C@]1(C)NC(=O)[C@H](Cc2ccc3ccccc3c2)NC(=O)[C@H](Cc2ccc(OCCN)cc2)NC(=O)[C@@H]2CC(=O)N[C@H](CCNC(=O)CCCC[C@@H](C(=O)N[C@@H](CCN)C(=O)N[C@@H](Cc3cccnc3)C(N)=O)NC1=O)C(=O)N[C@@H]([C@@H](C)O)C(=O)N[C@@H](Cc1c[nH]c3ccccc13)C(=O)N[C@@H](CCC(N)=O)C(=O)N2 [Compound 15, [{d}Dab](1c)(6c)^†TWQD(6c)[Y(2-aminoethoxy)][2-Nal][2-Me-Leu][2-Amino-6-carboxyhexanoyl](1 c)[Dab][3-(3-Pyridyl)-Ala]-[NH2]] ([dDab]TWQD[AEF][2Nal][αMeL][hAad][Dab][3Pal]-NH2; lactam 1-9, N-5) | – | 105% | – |
| CC[C@H](C)[C@@H]1NC(=O)[C@@H]2CCCCNC(=O)CC[C@@H](C(=O)N[C@@H](CCN)C(=O)N[C@@H](Cc3cccnc3)C(N)=O)NC(=O)[C@](C)(C(C)C)NC(=O)[C@H](Cc3ccc4ccccc4c3)NC(=O)[C@H](Cc3ccc(C)cc3)NC(=O)[C@H](CCC(=O)N2)NC(=O)[C@H](CCC(N)=O)NC(=O)[C@H](Cc2c[nH]c3ccccc23)NC(=O)[C@H](C(C)C)NC1=O [Compound 16, K(1c)(6c)^†IVWQE(6c)[F(4-Me)][2-Nal][2-Me-Val]E(1c)[Dab][3-(3-Pyridyl)-Ala]-[NH2]] | 0.099 nM | 101% | – |
